Consider 15 compounds from patent US9200011B2, “Ring constrained analogs as arginase inhibitors” (Mars, Incorporated, priority 2012, dated 2015).

In general, IC50 refers to the point on the concentration scale where inhibition reaches its midpoint. A lower IC50 goes with inhibition by little substance.

Experiment [1] concerns tumor bearing mice. The settings on record: cited from earlier work.
Experiment [2] relates to animals undergoing experimental autoimmune encephalomyelitis (EAE). The following applies: mouse, in vivo; cited from earlier work.
Experiment [3] concerns the target T1, arginase II (ARG II) (Homo sapiens, UniProt P78540).
T1 sequence (P78540 23-354): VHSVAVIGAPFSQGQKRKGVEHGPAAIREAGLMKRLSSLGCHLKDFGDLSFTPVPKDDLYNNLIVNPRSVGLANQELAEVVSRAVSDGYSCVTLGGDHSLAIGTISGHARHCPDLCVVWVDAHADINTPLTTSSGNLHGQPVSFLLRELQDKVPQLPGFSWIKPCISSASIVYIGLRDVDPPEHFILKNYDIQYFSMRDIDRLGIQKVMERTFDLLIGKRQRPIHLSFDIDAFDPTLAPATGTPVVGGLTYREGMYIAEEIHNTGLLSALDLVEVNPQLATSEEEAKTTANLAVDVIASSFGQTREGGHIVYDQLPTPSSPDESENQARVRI
Put plainly: Inhibition of arginase II, spectrophotometric urea assay at 530 nm. In kind it is biochemical. The settings on record: potency rank 1-5; pH 7.4, 37° C., 60 minutes. Here is the method:
(§1) The assay established the concentration of inhibitor that is required to reduce arginase activity by 50% (IC50).
(§2) Inhibition of arginase I (ARG I) and arginase II (ARG II) by the inventive compounds is followed spectrophotometrically at 530 nm. The compound to be tested is dissolved in DMSO at an initial concentration 50-fold greater than its final concentration in the cuvette. 10 μl of the stock solution is diluted in 90 μl of the assay buffer that comprises 0.1M sodium phosphate buffer containing 130 mM NaCl, pH 7.4, to which is added ovalbumin (OVA) at a concentration of 1 mg/ml. Solutions of arginase I and II are prepared in 100 mM sodium phosphate buffer, pH 7.4 containing 1 mg/ml of OVA to give an arginase stock solution at a final concentration of 100 ng/ml.
(§3) To each well of a 96-well microtiter plate is add 40 μl of enzyme, 10 μl of an inventive compound and 10 μl of enzyme substrate (L-arginine+manganese sulfate). For wells that are used as positive controls, only the enzyme and its substrate are added, while wells used as negative controls contain only manganese sulfate.
(§4) After incubating the microtiter plate at 37° C. for 60 minutes, 150 μl of a urea reagent obtained by combining equal proportions (1:1) of reagents A and B is added to each well of the microtiter plate to stop the reaction. The urea reagent is made just before use by combining Reagent A (10 mM o-phthaldialdehyde, and 0.4% polyoxyethylene (23) lauryl ether (w/v) in 1.8 M sulfuric acid) with Reagent B (1.3 mM primaquine diphosphate, 0.4% polyoxyethylene (23) lauryl ether (w/v), 130 mM boric acid in 3.6 M sulfuric acid). After quenching the reaction mixture, the microtiter plate is allowed to stand for an additional 10 minutes at room temperature to allow color development. The inhibition of arginase is computed by measuring the optical density (OD) of the reaction mixture at 530 nm and normalizing the OD value to percent inhibition observed in the control. The normalized OD is then used to generate a dose-response curve by plotting the normalized OD values against log [concentration] and using regression analysis to compute the IC50 values.

For experiment [4], the target named is T2, human arginase I (ARG I) (Homo sapiens, UniProt P05089).
T2 sequence (P05089 1-322): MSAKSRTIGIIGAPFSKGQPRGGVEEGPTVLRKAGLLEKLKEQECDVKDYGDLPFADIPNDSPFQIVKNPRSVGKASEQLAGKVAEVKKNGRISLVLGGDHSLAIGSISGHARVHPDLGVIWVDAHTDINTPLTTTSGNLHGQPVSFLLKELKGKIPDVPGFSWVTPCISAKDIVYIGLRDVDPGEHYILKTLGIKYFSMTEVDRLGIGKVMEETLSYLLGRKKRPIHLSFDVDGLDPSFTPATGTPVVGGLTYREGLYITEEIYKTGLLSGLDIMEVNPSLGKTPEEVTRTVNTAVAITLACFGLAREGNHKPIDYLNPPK
As to the kind of experiment: Inhibition of arginase I, spectrophotometric urea assay at 530 nm. In kind it is biochemical. The following applies: potency rank 1-5; pH 7.4, 37° C., 60 minutes. Here is the method:
as §1, §2, §3, §4

For experiment [5], the system named is bacterial arginase. The settings on record: cited from earlier work.
Experiment [6] concerns murine chronic model. The settings on record: murine chronic asthma model; cited from earlier work.
Experiment [7] deals with spontaneously hypertensive rats. The following applies: cited from earlier work.

Take `O=c1[nH]cc(F)c(=O)[nH]1` [5-Fluorouracil]: in experiment [1], the MDSC immunesuppression result is listed as “eliminates” and the tumor growth result is listed as “delayed tumor growth”.
In the case of `NC(CCCCB(O)O)C(=O)O` (stereo not shown) [ABH, amino-6-boronohexanoic acid], in experiment [2], the “severity of EAE versus control animals” value was “much milder form of EAE”.
As to `N[C@@]1(C(=O)O)C[C@@H](CNCc2ccccc2)C[C@@H]1CCCB(O)O` [Example 1, (1S,2S,4S)-1-amino-4-((benzylamino)methyl)-2-(3-boronopropyl)cyclopentanecarboxylic acid], the concentration for half-maximal inhibition (IC50) in experiment [3] and in experiment [4] was 26 to 100 nM in each case.
Turning to `N[C@@]1(C(=O)O)C[C@@H](CNCc2ccc(-c3ccc(Cl)cc3)cc2)C[C@@H]1CCCB(O)O` [Example 2, (1S,2S,4S)-1-amino-2-(3-boronopropyl)-4-((((4′-chloro-[1,1′-biphenyl]-4-yl)methyl)amino)methyl)cyclopentanecarboxylic acid], the half-maximal inhibitory concentration (IC50) in experiment [3] and in experiment [4] was 26 to 100 nM each time.
As for `N[C@@]1(C(=O)O)C[C@@H](CNC2Cc3ccccc3C2)C[C@@H]1CCCB(O)O` [Example 3, (1S,2S,4S)-1-amino-2-(3-boronopropyl)-4-(((2,3-dihydro-1H-inden-2-yl)amino)methyl)cyclopentanecarboxylic acid], the IC50 in experiment [3] fell in the range of 101 to 500 nM; in experiment [4] it was 26 to 100 nM.
As to `N[C@@]1(C(=O)O)C[C@@H](CNC2CCc3ccccc3C2)C[C@@H]1CCCB(O)O` (stereo partly drawn) [Example 4, (1S,2S,4S)-1-amino-2-(3-boronopropyl)-4-(((1,2,3,4-tetrahydronaphthalen-2-yl)amino)methyl)cyclopentanecarboxylic acid], the half-inhibitory concentration (IC50) in experiment [3] and in experiment [4] was 26 to 100 nM throughout.
On to `N[C@@]1(C(=O)O)C[C@@H](CNC2CCC2)C[C@@H]1CCCB(O)O` [Example 5, (1S,2S,4S)-1-amino-2-(3-boronopropyl)-4-((cyclobutylamino)methyl)cyclopentanecarboxylic acid], for which the half-inhibitory concentration (IC50) in experiment [3] lay within 101 to 500 nM; in experiment [4], 26 to 100 nM.
For `N[C@@]1(C(=O)O)C[C@@H](CN(C2CCC2)C2CCC2)C[C@@H]1CCCB(O)O` [Example 6, (1S,2S,4S)-1-amino-2-(3-boronopropyl)-4-((dicyclobutylamino)methyl)cyclopentanecarboxylic acid], the IC50 in experiment [3] and in experiment [4] was 101 to 500 nM in each case.
For `CN[C@@]1(C(=O)O)CCC[C@@H]1CCCB(O)O` [Example 7, (1S,2S)-2-(3-boronopropyl)-1-(methylamino) cyclopentanecarboxylic acid], the IC50 in experiment [3] and in experiment [4] was 501 to 1500 nM each time.
Take `N[C@@]1(C(=O)O)CCC[C@@H]1CCCB(O)O` [Example 8, (1S,2S)-1-amino-2-(3-boronopropyl)cyclopentanecarboxylic acid]: the IC50 in experiment [3] and in experiment [4] was 101 to 500 nM in each case.
As for `N[C@@]1(C(=O)O)CNC[C@@H]1CCCB(O)O` [Example 9, (3R,4S)-3-amino-4-(3-boronopropyl)pyrrolidine-3-carboxylic acid], the IC50 in experiment [3] and in experiment [4] was 101 to 500 nM throughout.
As to `NC(=NCCC[C@H](N)C(=O)O)NO` [NOHA], in experiment [5], the “CD3 expression on T-cells” value is “reestablished” and the “production of NO by macrophages” value was “enhanced”.
Take `N[C@@H](CSCCB(O)O)C(=O)O` [S-(2-boronoethyl)-L-cysteine]: in experiment [6], the “methacholine induced responsiveness of the central airways” value is listed as “attenuated”.
For the compound `Nc1ccn([C@@H]2O[C@H](CO)[C@@H](O)C2(F)F)c(=O)n1` [gemcitabine], in experiment [1], the MDSC immunesuppression result was “eliminates” and the tumor growth result was “delayed tumor growth”.
With `N=C(NO)NCC[C@H](N)C(=O)O` [nor-NOHA, N^ω-hydroxy-nor-L-arginine], the “vascular response of resistance vessels to blood flow and pressure” value in experiment [7] (spontaneously hypertensive animals) is given as “improved”. In addition, the blood pressure entry in experiment [7] (spontaneously hypertensive rats/animals) was “lowered blood pressure”.
